The results in this text go back to patent US7030089B2 (priority 2000, dated 2006).

In brackets after ≈: the same amount, converted by molar mass. Several values for one entry are separate records, joined by “and”; a condition that tells them apart may be missing. Equal values may be shown once. Read-outs that look alike come from different tables or passages of the source.

Data set [1] has as its system A2780 human ovarian carcinoma cell line. Kind of data set: Apoptotic effect (cells with apoptotic morphology, fluorescence microscopy) on A2780 cells with or without BSO pretreatment. It counts as cell-based. Here is the method: (§1) Further evidence of the relevance of GSH levels for the cytotoxicity of the compounds of formula (I) has been obtained by determining the influence of prior treatment with BSO (L-S.R buthionine sulphoximine) on the susceptibility of A2780 human ovarian cells to their cytotoxic and apoptotic effect.
(§2) The cytotoxic activity was determined on A2780 human ovarian carcinoma cell line.
(§3) The cytotoxic activity was determined against exponentially growing cells. A2780 cells were seeded in 6 well-plates at concentration of 100,000 cells/ml for 2 ml and incubated for 24 h with the GSH inhibitor BSO and finally exposed to different concentrations of PNU 166196 (untreated cells were incubated with the medium only).
(§4) After 24 h treatment with the drug, cell growth inhibition was evaluated on the monolayer cells whereas the floating cells were used for morphology evaluation.
Apoptosis was evaluated by fluorescence microscopy. At the end of the treatment, floating cells were collected, washed in PBS, fixed in 70% ice-cold ethanol and stored at −20° C. until analysis (5 days max.). Cells were then centrifuged and the pellets were stained with 50 μg/ml propidium iodide, 0.001% Nonidet P40 and 60 U/ml Rnase and stored in the dark for 30 minutes at 37° C. Cells were centrifuged and the pellets were resuspended in […]. At least 600 cells randomly chosen from 2 smears independently prepared were examined for their nuclear morphology changes (chromatin condensation and DNA fragmentation) using a fluorescence microscope [see Int. J. Cancer 65:491–497 (1996)]. All the experiments were carried out twice. Results are reported per the enclosed table II and comments thereof.

For data set [2] the test system is unchanged. Kind of data set: Cytotoxicity (growth inhibition) on A2780 cells with or without BSO pretreatment. It counts as cell-based. As to the method: as §1, §2, §3, §4
For data set [3], the system named is L1210 murine lymphocytic leukemia cell line. Kind of data set: Cytotoxic activity (cell growth inhibition, counting surviving cells) on L1210. It counts as cell-based. The following applies: Mus musculus, read-out: Cytotoxicity IC50. Here is the method:
The cytotoxic activity was determined against exponentially growing cells.
All the experiments were carried out twice.

For data set [4], the system named is L1210/L-PAM cells (melphalan resistant murine leukemia, high GSH). Kind of data set: cells. The note with it: for IC50: Mus musculus, L1210/LPAM, 48 h, read-out: Cytotoxicity IC50; for Cytotoxicity on L1210/L-PAM cells in respect to L1210 cells: comparison of IC50 on the two cell lines. As to the method:
The cytotoxic activity was determined on L1210 murine lymphocytic leukemia cell line and on the L-PAM resistant cell subline L1210/L-PAM. Cells were grown in vitro as stabilized suspension cultures.L1210 cells were maintained in RPMI 1640 medium containing β-mercaptoethanol (10 μM). L1210/L-PAM cells were maintained in RPMI 1640 medium containing β-mercaptoethanol (50 μM). All culture media (Biowhittaker, UK) were supplemented with 10% Fetal Calf Serum (Biological Industries, Israel) and 2 mM L-glutamine (Biowhittaker, UK).
The cytotoxic activity was determined against exponentially growing cells. L1210 and L1210/L-PAM cells were seeded in 24 well-plates at concentration of 50,000 cells/ml and immediately treated for 48 h with the drug.
The inhibition of cell growth was evaluated by counting surviving cells with a Coulter Counter. The antiproliferative activity of drugs was calculated from dose-response curves and expressed as IC50 (concentration inhibiting 50% cell growth in treated cultures relative to untreated controls). All the experiments were carried out twice.

Where [5] appears, read: A2780, BSO alone (dose printed MM).
The mark [6] stands for this setting: L1210 cells (GSH 7.7 nmole/10^6 cells), 48 h incubation.

Take `CCCCS(=N)(=O)CCC(N)C(=O)O` [BSO, L-S.R buthionine sulphoximine, reference compound]: the Apoptosis % in data set [1] (setting [5]) is listed as 0%. The Growth inhibition % in data set [2] (setting [5]) is reported as 2.5 ± 0.2%.
As to `N[C@@H](Cc1ccc(N(CCCl)CCCl)cc1)C(=O)O` [L-PAM, melphalan], the IC50 in data set [3] (L1210, 48 h) came out at 1.65 µg/mL (≈ 5.41 µM). Besides, in data set [4], the IC50 was found to be 8.1 µg/mL (≈ 26.5 µM) and the “Cytotoxicity on L1210/L-PAM cells in respect to L1210 cells” value is “lower”.
As to `C=C(Br)C(=O)Nc1cc(C(=O)Nc2cc(C(=O)Nc3cc(C(=O)Nc4cc(C(=O)NCCC(=N)N)n(C)c4)n(C)c3)n(C)c2)n(C)c1.Cl` [PNU 151807, N-(5-{[(5-{[(5-{[(3-amino-3-iminopropyl)amino]carbonyl}-1-methyl-1H-pyrrol-3-yl)amino]carbonyl}-1-methyl-1H-pyrrol-3-yl)amino]carbonyl}-1-methyl-1H-pyrrol-3-yl)-4-[(2-bromoacryloyl)amino]-1-methyl-1H-pyrrole-2-carboxamide hydrochloride], the half-maximal inhibitory concentration (IC50) in data set [3] (setting [6]) amounted to 0.00086 µg/mL; in data set [4] it was 0.00026 µg/mL.
As for `C=C(Br)C(=O)Nc1cc(C(=O)Nc2cc(C(=O)Nc3cc(C(=O)Nc4cc(C(=O)NCCNC(=N)N)n(C)c4)n(C)c3)n(C)c2)n(C)c1.Cl` [PNU 166196, N-(5-{[(5-{[(5-{[(2-{[amino(imino)methyl]amino}ethyl)amino]carbonyl}-1-methyl-1H-pyrrol-3-yl)amino]carbonyl}-1-methyl-1H-pyrrol-3-yl)amino]carbonyl}-1-methyl-1H-pyrrol-3-yl)-4-[(2-bromoacryloyl)amino]-1-methyl-1H-pyrrole-2-carboxamide hydrochloride], the IC50 in data set [3] (setting [6]) worked out at 0.00162 µg/mL; in data set [4], 0.00049 µg/mL. In addition, in data set [1] (A2780), the “Apoptotic effect (percentage of cells with apoptotic morphology) in BSO pretreated cells in respect to BSO-untreated ones” value is on record as “significantly decreased”. For the same compound, the Apoptosis % in data set [1] (A2780, 300 ng/ml, no BSO) is 17.5 ± 6.5%; in data set [1] (A2780, 1000 ng/ml, no BSO), 49.5 ± 15.5%; in data set [1] (A2780, 3000 ng/ml, BSO 0.1 mM 24 h before and during treatment), 11.5%; in data set [1] (A2780, 3000 ng/ml, no BSO, hydrochloride), 74.5% and 74.5 ± 15.5%. Also, the “Cytotoxicity (percentage of growth inhibition) in BSO pretreated cells in respect to BSO-untreated ones” value in data set [2] (A2780) was “significantly decreased”. Further, the inhibition at 0.3 µg/mL in data set [2] (Homo sapiens, A2780, A2780, 300 ng/ml, no BSO) stood at 43 ± 2.5%. Moreover, the inhibition at 1 µg/mL in data set [2] (Homo sapiens, A2780, A2780, 1000 ng/ml, no BSO) was 64.5 ± 14.5%. Also, the inhibition at 3 µg/mL was 38% in data set [2] (Homo sapiens, A2780, read-out: Growth inhibition %, A2780, 3000 ng/ml, BSO 0.1 mM 24 h before and during treatment); 77.5% in data set [2] (Homo sapiens, A2780, read-out: Growth inhibition %, A2780, 3000 ng/ml, no BSO).
On to `Cn1cc(NC(=O)c2cc(NC(=O)c3cc(NC(=O)c4ccc(N(CCCl)CCCl)cc4)cn3C)cn2C)cc1C(=O)NCCC(=N)N` [Tallimustine, 3-[1-methyl-4-[1-methyl-4-[1-methyl-4-[1-methyl-4-[N,N-bis(2-chloroethyl)amino]benzenecarboxamindo]pyrrole-2-carboxamido]pyrrole-2-carboxamido]pyrrole-2-carboxamido]propionamidine], for which the half-inhibitory concentration (IC50) in data set [3] (L1210, 48 h) stood at 0.0225 µg/mL (≈ 0.0323 µM); in data set [4], 0.0274 µg/mL (≈ 0.0393 µM). The “Cytotoxicity on L1210/L-PAM cells in respect to L1210 cells” value in data set [4] is reported as “comparable”.
